In PubChem BioAssay (NCI):
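Growth conditions: 96-well plates. Treatment: test compound, 48 hours, 5 concentrations. Analysis: linear interpolation between bracketing concentrations; unreached endpoints set to highest concentration. Definition used: TGI = concentration required for complete inhibition of growth.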

Key:
Test in all cases: NCI tumour cell line growth inhibition, 48 h
[1] = test system: CCRF-CEM leukemia
[2] = test system: T-47D breast
[3] = test system: OVCAR-5 ovarian
[4] = test system: ACHN renal
[5] = test system: COLO 205 colon
[6] = test system: RXF 393 renal
[7] = test system: SF-268 CNS
[8] = test system: A549 NSCLC
[9] = test system: SK-OV-3 ovarian
[10] = test system: SNB-75 CNS
[11] = test system: SK-MEL-2 melanoma
[12] = test system: UACC-257 melanoma
[13] = test system: A498 renal
[14] = test system: OVCAR-4 ovarian
[15] = test system: HCT-15 colon
[16] = test system: PC-3 prostate
[17] = test system: SN12C renal
[18] = test system: SR leukemia
[19] = test system: IGROV1 ovarian
[20] = test system: HS 578T breast
[21] = test system: MDA-MB-231 breast
[22] = test system: BT-549 breast
[23] = test system: CAKI-1 renal
[24] = test system: EKVX NSCLC
[25] = test system: HCT-116 colon
[26] = test system: HCC-2998 colon
[27] = test system: HT29 colon
[28] = test system: NCI-H460 lung
[29] = test system: SW-620 colon
[30] = test system: RPMI-8226 leukemia
[31] = test system: KM12 colon
[32] = test system: SF-295 CNS
[33] = test system: UO-31 renal
[34] = test system: HOP-92 NSCLC
[35] = test system: TK-10 renal
[36] = test system: SK-MEL-5 melanoma
[37] = test system: OVCAR-8 ovarian
[38] = test system: DU-145 prostate
[39] = test system: HOP-62 NSCLC
[40] = test system: MDA-MB-435
[41] = test system: OVCAR-3 ovarian
[42] = test system: SF-539 CNS
[43] = test system: 786-0 renal
[44] = test system: MOLT-4 leukemia
[45] = test system: MCF7 breast
[46] = test system: SNB-19 CNS
[47] = test system: MDA-N
[48] = test system: U251 CNS
[49] = test system: MALME-3M melanoma
[50] = test system: NCI/ADR-RES ovarian
[51] = test system: NCI-H522 lung
[52] = test system: UACC-62 melanoma
[53] = test system: SK-MEL-28 melanoma
[54] = test system: NCI-H226 lung
[55] = test system: HL-60(TB) leukemia
[56] = test system: NCI-H23 lung
[57] = test system: M14 melanoma
[58] = test system: K-562 leukemia

SMILES: Cc1cc(=O)[nH]c(S(=O)(=O)NC(=S)Nc2ccc(Cl)cc2)n1
- TGI [1]: > 100 µM
- TGI [2]: > 100 µM
- TGI [3]: > 100 µM
- TGI [4]: > 100 µM
- TGI [5]: > 100 µM
- TGI [6]: > 100 µM
- TGI [7]: > 100 µM
- TGI [8]: > 100 µM
- TGI [9]: > 100 µM
- TGI [10]: > 100 µM
- TGI [11]: > 100 µM
- TGI [12]: > 100 µM
- TGI [13]: > 100 µM
- TGI [14]: > 100 µM
- TGI [15]: > 100 µM
- TGI [16]: > 100 µM
- TGI [17]: > 100 µM
- TGI [18]: > 100 µM
- TGI [19]: > 100 µM
- TGI [20]: > 100 µM
- TGI [21]: > 100 µM
- TGI [22]: > 100 µM
- TGI [23]: > 100 µM
- TGI [24]: > 100 µM
- TGI [25]: > 100 µM
- TGI [26]: > 100 µM
- TGI [27]: > 100 µM
- TGI [28]: > 100 µM
- TGI [29]: > 100 µM
- TGI [30]: > 100 µM
- TGI [31]: > 100 µM
- TGI [32]: > 100 µM
- TGI [33]: > 100 µM
- TGI [34]: > 100 µM
- TGI [35]: > 100 µM
- TGI [36]: > 100 µM
- TGI [37]: > 100 µM
- TGI [38]: > 100 µM
- TGI [39]: > 100 µM
- TGI [40]: > 100 µM
- TGI [41]: > 100 µM
- TGI [42]: > 100 µM
- TGI [43]: > 100 µM
- TGI [44]: > 100 µM
- TGI [45]: > 100 µM
- TGI [46]: > 100 µM
- TGI [47]: > 100 µM
- TGI [48]: > 100 µM
- TGI [49]: > 100 µM
- TGI [50]: > 100 µM
- TGI [51]: 84.6 µM
- TGI [52]: > 100 µM
- TGI [53]: > 100 µM
- TGI [54]: > 100 µM
- TGI [55]: > 100 µM
- TGI [56]: > 100 µM
- TGI [57]: > 100 µM

SMILES: Clc1c2ncccc2cc2n[nH]nc12
- TGI [1]: > 100 µM
- TGI [2]: > 100 µM
- TGI [3]: > 100 µM
- TGI [4]: > 100 µM
- TGI [5]: > 100 µM
- TGI [6]: > 100 µM
- TGI [7]: > 100 µM
- TGI [8]: > 100 µM
- TGI [9]: > 100 µM
- TGI [10]: > 100 µM
- TGI [11]: > 100 µM
- TGI [12]: > 100 µM
- TGI [13]: > 100 µM
- TGI [14]: > 100 µM
- TGI [15]: > 100 µM
- TGI [16]: > 100 µM
- TGI [17]: > 100 µM
- TGI [18]: > 100 µM
- TGI [19]: > 100 µM
- TGI [20]: > 100 µM
- TGI [21]: > 100 µM
- TGI [22]: > 100 µM
- TGI [23]: > 100 µM
- TGI [24]: > 100 µM
- TGI [25]: > 100 µM
- TGI [26]: > 100 µM
- TGI [27]: > 100 µM
- TGI [28]: > 100 µM
- TGI [29]: > 100 µM
- TGI [30]: > 100 µM
- TGI [31]: > 100 µM
- TGI [32]: > 100 µM
- TGI [33]: > 100 µM
- TGI [34]: > 100 µM
- TGI [35]: > 100 µM
- TGI [36]: > 100 µM
- TGI [37]: > 100 µM
- TGI [38]: > 100 µM
- TGI [39]: > 100 µM
- TGI [40]: > 100 µM
- TGI [41]: > 100 µM
- TGI [42]: > 100 µM
- TGI [43]: > 100 µM
- TGI [44]: 77.1 µM
- TGI [45]: > 100 µM
- TGI [46]: > 100 µM
- TGI [47]: > 100 µM
- TGI [48]: > 100 µM
- TGI [49]: > 100 µM
- TGI [50]: > 100 µM
- TGI [51]: > 100 µM
- TGI [52]: > 100 µM
- TGI [53]: > 100 µM
- TGI [54]: > 100 µM
- TGI [55]: > 100 µM
- TGI [56]: > 100 µM
- TGI [58]: > 100 µM
- TGI [57]: > 100 µM
